Assay results as given in PubChem BioAssay (NCI).
Converted amounts (≈) assume the structure as drawn. “And” between values parts separate entries of the source, which are not always exact repeats. Equal entries are not always repeated.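 Tested at 5 concentrations; 48 h exposure; 96-well plates; endpoints linearly interpolated, else capped at highest concentration. GI50: concentration for 50% inhibition of growth. Definition used: TGI = concentration required for complete inhibition of growth.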

What was measured:
Assay in all cases: growth of human tumour cells (NCI), 48 h
T-47D breast = test system: T-47D breast
CAKI-1 renal = test system: CAKI-1 renal
RPMI-8226 leukemia = test system: RPMI-8226 leukemia
SF-295 CNS = test system: SF-295 CNS
MDA-MB-231 breast = test system: MDA-MB-231 breast
MCF7 breast = test system: MCF7 breast
SK-OV-3 ovarian = test system: SK-OV-3 ovarian
OVCAR-3 ovarian = test system: OVCAR-3 ovarian
HCT-116 colon = test system: HCT-116 colon
MDA-MB-435 = test system: MDA-MB-435
SNB-75 CNS = test system: SNB-75 CNS

| SMILES | TGI (T-47D breast) [µM] | TGI (CAKI-1 renal) [µM] | TGI (RPMI-8226 leukemia) | TGI (SF-295 CNS) | TGI (MDA-MB-231 breast) [µM] | TGI (MCF7 breast) | TGI (SK-OV-3 ovarian) | TGI (OVCAR-3 ovarian) | TGI (HCT-116 colon) | TGI (MDA-MB-435) | TGI (SNB-75 CNS) | GI50 (RPMI-8226 leukemia) | GI50 (SK-OV-3 ovarian) | GI50 (SNB-75 CNS) [µg/mL] |
| --- | --- | --- | --- | --- | --- | --- | --- | --- | --- | --- | --- | --- | --- | --- |
| CCOC(=O)c1nnc2c(C#N)c(-c3ccccc3)c(C)n2c1N | > 100 | > 100 | 53.9 µM | > 100 µM | > 100 | > 100 µM | > 100 µM | > 100 µM | > 100 µM | > 100 µM |  |  |  |  |
| O=[N+]([O-])c1ccc(NNN=Nc2ccc(-c3nc4ccccc4s3)cc2)c([N+](=O)[O-])c1 | > 100 | > 100 |  | 42.6 µM | 64.3 |  | > 100 µM | 46.7 µM | 33.8 µM | 66.2 µM | 82.1 µM |  |  |  |
| c1ccc([I+]c2ccccc2)cc1 | > 100 | > 100 | > 100 µM | > 100 µM | > 100 | > 100 µM | > 100 µM | > 100 µM | > 100 µM | > 100 µM |  |  |  |  |
| CCC1NC(N=Nc2ccc([N+](=O)[O-])cc2)(P(=O)(OC(C)C)OC(C)C)OC1=O (configuration not stated) |  | > 100 | > 100 µM | > 100 µM |  |  | > 100 µM | > 100 µM | > 100 µM |  | 97.4 µM |  |  |  |
| N#CNC(=NCCc1c[nH]c2ccccc12)Oc1ccccc1 |  |  | > 100 µM | > 100 µM |  |  | > 100 µM | > 100 µM | > 100 µM |  | > 100 µM |  |  |  |
| CC1=CC2c3cccc4[nH]cc(c34)CC2N(C)C1 (configuration not stated) |  | > 100 | > 100 µM | > 100 µM |  | > 100 µM | > 100 µM | > 100 µM | > 100 µM |  | > 82.4 µM |  |  |  |
| COC1=C(C)C(=O)c2c(cc3c(c2O)C(C)(CCC=C(C)C)C(C)O3)C1=O (configuration not stated) |  | > 100 | > 100 µM | 52.7 µM |  |  | > 100 µM | > 100 µM | > 100 µM |  | 37.1 µM |  |  |  |
| CC(=O)OC(C)(C)CCC(=O)[C@](C)(O)[C@H]1[C@H](O)C[C@@]2(C)[C@@H]3CCc4c(cc(OC5OC(CO)C(O)C(O)C5O)c(O)c4C)C3(C)C(=O)C[C@]12C (some centres not stated) | > 100 | > 100 |  | > 100 µM | > 100 | > 100 µM | > 100 µM | > 100 µM | > 100 µM | > 100 µM | > 100 µM |  |  |  |
| COc1ccc(/C=C2\C[C@H]3[C@@H]4CCC5=CC(=O)CC[C@]5(C)[C@H]4CC[C@]3(C)C2=O)cc1OC | > 100 | > 100 | 47.3 µM | > 100 µM |  | > 100 µM | > 100 µM | > 100 µM | > 100 µM | > 100 µM | > 100 µM |  |  |  |
| COc1cc(C2c3cc4c(cc3[C@@H](NCCN3CCOCC3)C3COC(=O)[C@H]23)OCO4)cc(OC)c1O (some centres not stated) |  | > 75 | 6.58 µM and 9.59 µM | 13.5 µM and 17.4 µM |  |  | 5.89 µM and 11.3 µM | 21.5 µM and 14.3 µM | 15.8 µM and > 17.5 µM |  | 1.8 µM and 11.6 µM | 0.855 µM and 1.81 µM | 1.49 µM and 3.36 µM |  |
| CN(Cc1cnc2c(N)nc(N)nc2n1)c1ccc(Cl)cc1 | > 100 | > 100 | > 100 µM | > 100 µM | > 100 | > 100 µM | > 100 µM | > 100 µM |  | > 100 µM | 29.6 µM |  |  |  |
| CC(C)NC(=O)OCc1c2c(n(C)c1COC(=O)NC(C)C)-c1ccccc1CC2 |  | 25.5 | 17.3 µM | 30.2 µM |  | 22.4 µM | 42.6 µM | 27.3 µM | 23.2 µM |  | 29.4 µM |  |  |  |
| COc1ccccc1C1c2cc3c(cc2OC(N2CCOCC2)C1C)OCO3 (configuration not stated) | 78.3 |  | 45.7 µM | 35.5 µM |  | 81.5 µM |  | 29.5 µM | 26.2 µM | 24.9 µM |  |  |  |  |
| COc1cccc(/C=C2\S/C(=N/Nc3nc(-c4ccc([N+](=O)[O-])cc4)cs3)NC2=O)c1O | 27.5 | 71.1 | 35.2 µM | 38.7 µM | 41.7 | 38.2 µM | 79.8 µM | 30.1 µM | 27.8 µM | 42.2 µM |  |  |  |  |
| O=C(O)C1CCCCN1c1ccccc1[N+](=O)[O-] (configuration not stated) |  | > 100 | > 100 µM | > 100 µM |  |  | > 100 µM | > 100 µM | > 100 µM |  | > 100 µM |  |  |  |
| COc1cc2c(c(OC)c1OC)-c1ccc(SC)cc1C(O)CC2 (configuration not stated) | > 100 | 15.7 | > 100 µM and 45.9 µg/mL | 83.7 µM | > 100 | > 100 µM and 36.1 µg/mL |  | > 100 µM | > 100 µM | 17 µg/mL | 34.7 µM |  |  | 43.5 (≈ 126 µM) |
| COC(=O)C12OC3CO[Si](C(C)C)(C(C)C)O[Si](C(C)C)(C(C)C)OC3C1Oc1nc(=O)ccn12 (configuration not stated) | 33 | 31.7 | 30.8 µM | 29.6 µM | 29.5 | 29.4 µM | 31.1 µM | 29.3 µM | 29.6 µM | 31.3 µM |  |  |  |  |
| Cn1c(N)nc(-c2ccc(Cl)cc2)c1SSc1c(-c2ccc(Cl)cc2)nc(N)n1C | 5.06 |  | 3.3 µM | 21.4 µM | 2.88 |  | 27.4 µM | 3.54 µM | 13.4 µM | 3.54 µM | 20.8 µM |  |  |  |
| O=c1oc2cc(O)ccc2c(O)c1Cc1c(O)c2ccc(O)cc2oc1=O | > 100 | > 100 |  | > 100 µM | > 100 | > 100 µM | > 100 µM | > 100 µM | > 100 µM | > 100 µM | > 100 µM |  |  |  |
| Cc1ccc(Nc2nc3c(=O)n(C)c(=O)n(C)c3nc2Nc2ccc(C)cc2)cc1 | 30.3 | 30.4 | > 100 µM | 45.7 µM | 27.1 |  | > 100 µM |  | 22.1 µM | 25.1 µM | 35.2 µM |  |  |  |
| CC(=O)CC1=C(OC(C)C)C2(OCCO2)C1O (configuration not stated) | > 100 | > 100 |  | > 100 µM | > 100 | > 100 µM | > 100 µM | > 100 µM | > 100 µM | > 100 µM | > 100 µM |  |  |  |
| O=C(Nc1ccc(Cl)cc1)c1cc(S(=O)(=O)Nc2nnc3c(Cl)cc(C(F)(F)F)cn23)c(S)cc1Cl | > 100 | > 100 | > 100 µM | > 100 µM | > 100 | > 100 µM | > 100 µM | > 100 µM | > 100 µM | > 100 µM |  |  |  |  |
| O=C1c2ccccc2N2Oc3ccccc3C12c1ccccc1 (configuration not stated) |  |  | > 100 µM | > 100 µM |  |  | > 100 µM |  | > 100 µM |  | > 100 µM |  |  |  |
